Results reported in patent publication US20090312237A1, “REGULATING FAT AND CARBOHYDRATE OXIDATION IN MUSCLE TISSUE COMPRISING CONTROLLING GARNITINE CONTENT IN MUSCLE” (THE UNIVERSITY OF NOTTINGHAM, priority 2006, published 2009).

Tests used:
Assay type in all cases: in vivo, human
[1] = Muscle metabolites (glycogen, lactate, glucose-6-phosphate, long-chain acyl-CoA) in biopsy samples; settings: for muscle LCACoA content greater than CON: following morning (24 h), CARN vs CON, P<0.05
Description: (§1) Seven healthy, non-vegetarian young men (age 22.4±1.5 yr, body mass 84.3±5.0 kg, body mass index […]) participated in the study. Each subject reported to the laboratory at 8 am on two occasions, separated by a 2-week “wash out” period, and voided their bladder. All subjects had abstained from carnitine containing foods, alcohol, and strenuous exercise for the previous 24 hours. On arrival, subjects were asked to rest in a supine position on a bed while a cannula was inserted retrogradely in to a superficial vein on the dorsal surface of the non-dominant hand. This hand was kept in a hand-warming unit (air temperature 50-55° C.) to arterialize the venous drainage of the hand, and a saline drip was attached to keep the cannula patent. A second cannula was placed in an antecubital vein in the non-dominant forearm for the infusion of insulin and glucose, and a third cannula was inserted into an antecubital vein in the opposite arm for infusion of L-carnitine.
(§2) On each experimental visit, a 6 hour (h) euglycaemic hyperinsulinaemic insulin (human Actrapid, Novo Nordisk, Denmark) clamp was performed, whilst maintaining a fasting blood glucose concentration of 4.47±0.01 mmol·l^−1. The insulin clamp began at t=0 at a rate of 105 mlU·m^−2·min^−1 with the aim of achieving steady state hyperinsulinaemic (˜150 mlU·l^−1) serum insulin concentration throughout each visit. Following a 1 hour equilibration period, a 5 hour intravenous infusion of 60 mM L-carnitine (CARN) (Lonza Ltd, Basel, Switzerland) or the equivalent volume of saline (CON) began, in randomised manner, in conjunction with the insulin clamp. At the onset of L-carnitine infusion a bolus dose of 15 mg·kg^−1 was administered over 10 minutes (min) in order to rapidly reach a supraphysiological plasma concentration of ˜500 μmol·l^−1. This was followed by a constant infusion at 10 mg·kg^−1·h^−1 for the next […] to maintain hypercarnitinaemia. At t=6 h, the insulin and L-carnitine infusions were stopped, whereas the glucose infusion was continued for approximately 80 min in order to stabilise blood glucose concentration. During this time, on each visit, subjects were fed the same standardised, carnitine-free meal.
(§3) Muscle biopsy samples were obtained from the vastus lateralis muscle immediately before and after each insulin clamp, and the following morning, using the percutaneous needle biopsy technique, and were snap frozen in liquid nitrogen less than 5 seconds after removal from the limb. One portion of the sample was subsequently freeze-dried and stored at −80° C., and the remainder was stored “wet” in liquid nitrogen. After removal of visible blood and connective tissue, the freeze-dried muscle samples were powdered, and free carnitine (FC), acetylcarnitine (AC), long-chain acylcarnitine (LCAC), and long-chain acyl-CoA (LCACoA) contents were determined radioenzymatically using a modified version of the radioenzymatic method of Cederblad et al (1990). Values were subsequently summed in order to calculate muscle TC. To reduce the variance in non-muscle constituents, muscle carnitine content was adjusted for the highest total creatine content from each pair of samples. Total creatine was calculated as the sum of free creatine and phosphocreatine content determined spectrophotometrically using the method of Harris et al (1974). Muscle glycogen, glucose-6-phosphate (G-6-P), and lactate content was also determined using a modified version of the spectrophotometric method of Harris et al (1974).
(§4) A two-way ANOVA (time and treatment effects; GraphPad Prism 4.02, GraphPad Software Inc, CA) was performed to locate differences in serum insulin, plasma carnitine, plasma FFA, and blood glucose concentrations as well as muscle PDC activity and carnitine, long-chain acyl-CoA, glycogen, lactate, and glucose-6-phosphate content. When a significant main effect was detected, data were further analysed with Student's paired t tests using the Bonferroni correction. […]

[2] = Skeletal muscle carnitine content (vastus lateralis biopsy, radioenzymatic)
Description: as §1, §2, §3, §4

[3] = Euglycaemic hyperinsulinaemic clamp with intravenous L-carnitine infusion: serum insulin and whole body glucose disposal; settings: for whole body glucose disposal: mean±SEM
Description: as §1
(§5) On each experimental visit, a 6 hour (h) euglycaemic hyperinsulinaemic insulin (human Actrapid, Novo Nordisk, Denmark) clamp was performed, whilst maintaining a fasting blood glucose concentration of 4.47±0.01 mmol·l^−1. The insulin clamp began at t=0 at a rate of 105 mlU·m^−2·min^−1 with the aim of achieving steady state hyperinsulinaemic (˜150 mlU·l^−1) serum insulin concentration throughout each visit. […]
(§6) During each experimental visit, 1 ml of arterialized venous (a-v) blood was obtained every 5 min for monitoring blood glucose concentration (YSI 2300 STATplus, Yellow Springs Instruments, Ohio). […] These samples were then stored at −80° C. and analyzed at a later date for free fatty acid (FFA) concentration, using an enzymatic-colorimetric assay kit (NEFA C kit, WAKO Chemicals, Germany), and total carnitine (TC) concentration, using the radioenzymatic assay described previously by Cederblad et al (1982). […] Insulin was measured in these samples at a later date with a radioammunoassy kit (Coat-a-Count Insulin, DPC, Ca, USA). […]

[4] = system: pyruvate dehydrogenase complex (PDC); assay: Muscle pyruvate dehydrogenase complex (PDC) activity in biopsy samples; settings: for post infusion PDC activity less than CON: CARN vs CON, P<0.05; for muscle PDC activity: post infusion/clamp
Description: as §1, §5
Muscle biopsy samples were obtained from the vastus lateralis muscle immediately before and after each insulin clamp, and the following morning, using the percutaneous needle biopsy technique, and were snap frozen in liquid nitrogen less than 5 seconds after removal from the limb. […] After removal of visible blood and connective tissue, the freeze-dried muscle samples were powdered, and free carnitine (FC), acetylcarnitine (AC), long-chain acylcarnitine (LCAC), and long-chain acyl-CoA (LCACoA) contents were determined radioenzymatically using a modified version of the radioenzymatic method of Cederblad et al (1990). […] Total creatine was calculated as the sum of free creatine and phosphocreatine content determined spectrophotometrically using the method of Harris et al (1974). Muscle glycogen, glucose-6-phosphate (G-6-P), and lactate content was also determined using a modified version of the spectrophotometric method of Harris et al (1974).
The remainder of the frozen muscle was used to determine PDC activity as previously described (Constantin-Teodosiu et al, 1991). Briefly, the activity of PDC in its dephosphorylated active form (PDCa) was assayed in a buffer containing NaF and dichloroacetate (DCA) and was expressed as rate of acetyl-CoA formation (mmol·min^1·(kg wet muscle)^−1 or nmol·min^1·(mg protein)^−1) at 37° C. Protein concentrations were determined using the method of Peterson (1977). […]

[5] = Plasma free fatty acid (FFA) concentration during L-carnitine infusion with insulin clamp; settings: not significantly different from CON
Description: Seven healthy, non-vegetarian young men (age 22.4±1.5 yr, body mass 84.3±5.0 kg, body mass index […]) participated in the study. Each subject reported to the laboratory at 8 am on two occasions, separated by a 2-week “wash out” period, and voided their bladder. All subjects had abstained from carnitine containing foods, alcohol, and strenuous exercise for the previous 24 hours. On arrival, subjects were asked to rest in a supine position on a bed while a cannula was inserted retrogradely in to a superficial vein on the dorsal surface of the non-dominant hand. This hand was kept in a hand-warming unit (air temperature 50-55° C.) to arterialize the venous drainage of the hand, and a saline drip was attached to keep the cannula patent. […]
as §6

C[N+](C)(C)C[C@H](O)CC(=O)[O-] [L-carnitine]
muscle glycogen content ([1]; 24 h after commencement of the insulin infusion, P<0.001 vs pre, P<0.01 vs CON): 736±24 mmol·(kg dm)^−1 | difference in whole body muscle glycogen content between CON and CARN visits ([1]; assuming skeletal muscle contributes to 40% of total body mass): 250 g | skeletal muscle glucose-6-phosphate content ([1]; during each visit): No significant differences | increase in muscle glycogen content compared with CON ([1]; following an overnight fast (24 h)): 30% | muscle LCACoA content ([1]; following morning (24 h) in the CARN visit): returned to basal | muscle LCACoA content greater than CON [1]: 40% | muscle LCACoA content greater than CON ([1]; listed as CARN): 39% | skeletal muscle lactate content ([1]; following the CARN infusion visit (CON increased 56%)): unchanged | decrease in muscle lactate content ([1]; post infusion, 6 hour clamp): 40% | muscle glycogen content ([1]; post infusion, resting 487±23, P<0.01): 651±37 mmol·(kg dm)^−1 | skeletal muscle total carnitine (TC) content ([2]; 24 h (following morning), not significantly different from pre infusion value): 25.1±2.2 mmol·(kg dm)^−1 | muscle free carnitine (FC) overnight ([2]; 24 h after CARN infusion visit): retuning to basal | skeletal muscle total carnitine (TC) content ([2]; after 5 h L-carnitine infusion during hyperinsulinaemia, pre infusion 22.5±2.0, P<0.01): 26.6±1.6 mmol·(kg dm)^−1 | change in muscle acetyl carnitine (AC) ([2]; during the CARN infusion visit): no change | increase in muscle free carnitine (FC) ([2]; during the CARN infusion visit, P<0.05): 17% | skeletal muscle long chain acyl carnitine ([2]; following infusion visit): unchanged | increase in skeletal muscle TC ([2]; post vs pre 5 h L-carnitine infusion during hyperinsulinaemia): 15% | whole body glucose disposal ([3]; 80 min recovery period following the clamp): 37.2 ± 3.5 g | whole body glucose disposal ([3]; over the 6 h clamp, n=7): 316.8 ± 15.0 g | total amount of glucose infused ([3]; whole visit (CON approximately 330 g)): ~350 g | post infusion PDC activity less than CON [4]: 30% | post infusion PDC activity less than CON ([4]; listed as CARN): 31% | muscle PDC activity ([4]; pre 0.43±0.07, P<0.01): 0.74±0.06 mmol·min^−1·(kg wm)^−1 | muscle PDC activity ([4]; pre 4.2±1.6): 4.1±0.9 nmol·min^−1·(mg protein)^−1 | plasma FFA concentration ([5]; by 24 h): 0.19 ± 0.02 mmol/L | plasma FFA concentration ([5]; maintained during the insulin clamp, basal 0.30±0.04): 0.046 ± 0.01 mmol/L
